Legend:
[1] = molecular target: T1, HIV-1 RT-associated RNase H activity, A508V RT (Human immunodeficiency virus type 1 group M subtype B, UniProt P04585, A1095V); assay: RNase H activity assay, A508V RT; type: biochemical, HIV-1 group M subtype B; settings: for Fold of increase of RNase H IC50 with respect to wt RT: A508V RT
T1 construct: The 1:1 ration between the p66/p51 subunits was also verified; made in house; host or cells: E. coli M15
Experimental: (§1) HIV RT-associated RNase H activity was measured as described in 100 μL reaction volume containing 50 mM Tris-HCl buffer pH 7.8, 6 mM MgCl2, 1 mM dithiothreitol (DTT), 80 mM KCl, 0.25 μM hybrid RNA/DNA 5'-GAUCUGAGCCUGGGAGCU-Fluorescin-3' (HPLC, dry, QC: Mass Check) (available from Metabion) 5'-Dabcyl-AGCTCCCAGGCTCAGATC-3'(HPLC, dry, QC: Mass Check), increasing concentrations of inhibitors, whose dilution were made in water, and different amount of enzymes according to a linear range of dose-response curve: 20 ng of WT RT; 60 ng K103N RT; 37.5 ng V106A RT; 75 ng V108A RT; 5 ng Y181C RT; 50 ng Y188A RT; 30 ng Y188L RT; 100 ng E224A RT; 37.5 ng P225A RT; 20 ng P226A RT; 18 ng F227A RT; 30 ng L228A RT; 30 ng W229A RT; 10 ng M230A RT; 30 ng G231A RT; 62.5 ng N474A RT; 1 μg Y501A RT; 100 ng A502F RT; 37.5 ng A508V RT; 38 ng HIV-1 group O RT. The reaction mixture was incubated for 1 h at 37°C, stopped by addition of EDTA and products were measured with a multilabel counter plate reader Victor 3 (Perkin Elmer model 1420–051) equipped with filters for 490/528 nm (excitation/emission wavelength)

[2] = system: HIV-1 RT-associated RNase H activity, V108A RT; assay: RNase H activity assay, V108A RT; type: biochemical, HIV-1 group M subtype B; settings: V108A RT
Experimental: as §1

[3] = molecular target: T2, HIV-1 RT-associated RDDP activity, E224A RT (Human immunodeficiency virus type 1 group M subtype B, UniProt P04585, E811A); assay: biochemical; set-up: species or system HIV-1 group M subtype B
T2 construct: The 1:1 ration between the p66/p51 subunits was also verified; made in house; host or cells: E. coli M15

[4] = system: HIV-1 RT-associated RDDP activity, M230A RT; assay: biochemical; set-up: species or system HIV-1 group M subtype B; settings: M230A RT
[5] = molecular target: T3, HIV-1 RT-associated RDDP activity, M230A RT (Human immunodeficiency virus type 1 group M subtype B, UniProt P04585, M817A); assay: biochemical; set-up: species or system HIV-1 group M subtype B
T3 construct: The 1:1 ration between the p66/p51 subunits was also verified; made in house; host or cells: E. coli M15

[6] = molecular target: T4, HIV-1 RT-associated RDDP activity, G231A RT (Human immunodeficiency virus type 1 group M subtype B, UniProt P04585, G818A); assay: biochemical; set-up: species or system HIV-1 group M subtype B
T4 construct: The 1:1 ration between the p66/p51 subunits was also verified; made in house; host or cells: E. coli M15

[7] = molecular target: T5, HIV-1 RT-associated RDDP activity, A508V RT (Human immunodeficiency virus type 1 group M subtype B, UniProt P04585, A1095V); assay: biochemical; set-up: species or system HIV-1 group M subtype B
T5 construct: The 1:1 ration between the p66/p51 subunits was also verified; made in house; host or cells: E. coli M15

[8] = molecular target: T6, HIV-1 RT-associated RDDP activity, Y501A RT (Human immunodeficiency virus type 1 group M subtype B, UniProt P04585, Y1088A); assay: biochemical; set-up: species or system HIV-1 group M subtype B
T6 construct: The 1:1 ration between the p66/p51 subunits was also verified; made in house; host or cells: E. coli M15

[9] = molecular target: HIV-1 RT-associated RDDP activity, HIV-1 group O RT (Human immunodeficiency virus type 1 group O, UniProt Q79666); assay: RDDP activity assay, HIV-1 group O RT; type: biochemical; settings: read-out: IC50 RDDP
Text: Recombinant HIV-1 group O RT was expressed and purified as previously described. It was obtained as a heterodimer composed of subunits of 66 and 51 kDa, with a polyhistidine tag at the C-terminus of p66. For this purpose, the RT p66 subunit encoded within a p66RTB expression vector was co-expressed with the HIV-1 protease in E. coli XL-1 Blue, and the obtained heterodimers were then purified by ionic exchange followed by chromatography on Ni2+-nitriloacetic acid agarose. The enzyme was quantified by active site titration before biochemical studies.
RNA-dependent DNA polymerase (RDDP) activity was measured as described in 25 μL volume containing 60 mM Tris-HCl buffer pH 8.1, 8 mM MgCl2, 60 mM KCl, 13 mM DTT, 2.5 μM poly(A)-oligo(dT), 100 μM dTTP, increasing concentrations of inhibitors, whose dilution were made in water, and different amounts of enzymes according to a linear range of dose-response curve: 6 ng wt RT; 30 ng K103N RT; 12 ng V106ART; 19 ng V108A RT; 1.51.5 ng Y181C RT; 45 ng Y188A RT; 15 ng Y188L RT; 30 ng E224A RT; 15 ng P225A RT; 18 ng P226A RT; 23 ng F227A RT; 15 ng L228A RT; 30 ng W229A RT; 30 ng M230A RT; 15 ng G231A RT; 15 ng N474A RT; 15 ng Y501A RT; 15 ng A502F RT; 19 ng A508V RT; 38 ng HIV-1 group O RT. After enzyme addition, the reaction mixture was incubated for 30 min at 37°C and the stopped by addition of EDTA. […]

[10] = molecular target: T7, HIV-1 RT-associated RDDP activity, Y188L RT (Human immunodeficiency virus type 1 group M subtype B, UniProt P04585, Y775L); assay: RDDP activity assay, Y188L RT; type: biochemical, HIV-1 group M subtype B
T7 construct: The 1:1 ration between the p66/p51 subunits was also verified; made in house; host or cells: E. coli M15

[11] = molecular target: T8, HIV-1 RT-associated RDDP activity, Y188A RT (Human immunodeficiency virus type 1 group M subtype B, UniProt P04585, Y775A); assay: biochemical; set-up: species or system HIV-1 group M subtype B
T8 construct: The 1:1 ration between the p66/p51 subunits was also verified; made in house; host or cells: E. coli M15

[12] = system: HIV-1 RT-associated RDDP activity, Y188A RT; assay: biochemical; set-up: species or system HIV-1 group M subtype B; settings: Y188A RT
[13] = system: HIV-1 RT-associated RDDP activity, L228A RT; assay: biochemical; set-up: species or system HIV-1 group M subtype B; settings: L228A RT

CC(C)c1ccc(O)c(=O)c(O)c1 [BTP, β-thujaplicinol, reference compound]
IC50 [1]: 0.16 ± 0.05 µM
Fold of increase of RNase H IC50 with respect to wt RT [1]: 0.8
Fold of increase of RNase H IC50 with respect to wt RT [2]: 0.9

N#Cc1ccc(-c2csc(NN=C3C(=O)Nc4ccccc43)n2)cc1 [RMNC6, (Z)-4-(2-(2-(2-oxoindolin-3-ylidene)hydrazinyl)thiazol-4-yl)benzonitrile]
IC50 [3]: 13.8 ± 4.2 µM
Fold of increase of RDDP IC50 with respect to wt RT ([3]; E224A RT): 1.4
Fold of increase of RDDP IC50 with respect to wt RT [4]: 1.5
IC50 [5]: 15 ± 3.5 µM
IC50 [1]: 6.5 ± 0.7 µM
Fold of increase of RNase H IC50 with respect to wt RT [1]: 5.0
IC50 [6]: 10.8 ± 2.4 µM
Fold of increase of RDDP IC50 with respect to wt RT ([6]; G231A RT): 1.1
IC50 [7]: 19.3 ± 2.8 µM
Fold of increase of RDDP IC50 with respect to wt RT ([7]; A508V RT): 2.0
IC50 [8]: 6.6 ± 0.1 µM
Fold of increase of RDDP IC50 with respect to wt RT ([8]; Y501A RT): 0.7
IC50 [9]: 20.1 ± 7.4 µM
IC50 [10]: 16.5 ± 3.7 µM
IC50 [11]: 20.9 ± 4 µM
Fold of increase of RDDP IC50 with respect to wt RT [12]: 2.1
Fold of increase of RDDP IC50 with respect to wt RT [13]: 1.3
